Laboratory results from publication PMC7044277 (Nature Communications, 2020).
Values joined by “and” are separate entries in the source; they are usually repeats but may differ in a detail not shown here. Identical values can stand only once.

Columns and labels:
Assay type in all cases: cell-based
[1] = target: T1, 320 non-olfactory GPCRs (Homo sapiens, UniProt P35348)
T1 construct: expressed in transfected cells; host or cells: HTLA cells

[2] = target: T2, 320 non-olfactory GPCRs (Homo sapiens, UniProt P55085)
T2 construct: expressed in transfected cells; host or cells: HTLA cells

[3] = target: T3, 320 non-olfactory GPCRs (Homo sapiens, UniProt P51679)
T3 construct: expressed in transfected cells; host or cells: HTLA cells

[4] = target: T4, 320 non-olfactory GPCRs (Homo sapiens, UniProt P30518)
T4 construct: expressed in transfected cells; host or cells: HTLA cells
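Also: compound tested at 1 µM final concentration.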

T3 sequence (P51679 whole entry): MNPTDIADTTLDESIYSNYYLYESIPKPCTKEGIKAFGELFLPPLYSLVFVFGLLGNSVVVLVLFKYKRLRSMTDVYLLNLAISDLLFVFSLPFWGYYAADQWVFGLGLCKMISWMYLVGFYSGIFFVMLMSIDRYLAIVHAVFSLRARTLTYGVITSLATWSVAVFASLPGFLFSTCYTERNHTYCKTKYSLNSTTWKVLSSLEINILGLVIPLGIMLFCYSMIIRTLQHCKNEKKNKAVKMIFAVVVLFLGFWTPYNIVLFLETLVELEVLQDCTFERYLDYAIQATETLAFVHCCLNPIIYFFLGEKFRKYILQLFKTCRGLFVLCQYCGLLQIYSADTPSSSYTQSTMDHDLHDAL
T2 sequence (P55085 26-397): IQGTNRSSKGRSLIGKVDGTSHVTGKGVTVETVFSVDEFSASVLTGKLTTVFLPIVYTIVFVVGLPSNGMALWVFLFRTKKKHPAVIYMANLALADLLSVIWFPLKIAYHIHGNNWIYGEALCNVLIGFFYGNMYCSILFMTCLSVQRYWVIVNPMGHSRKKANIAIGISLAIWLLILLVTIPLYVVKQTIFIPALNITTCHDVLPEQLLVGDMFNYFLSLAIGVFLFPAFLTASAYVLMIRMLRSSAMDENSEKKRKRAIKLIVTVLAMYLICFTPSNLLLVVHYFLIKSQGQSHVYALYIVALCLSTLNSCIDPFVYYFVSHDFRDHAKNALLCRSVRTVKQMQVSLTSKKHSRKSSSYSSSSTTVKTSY
T1 sequence (P35348 whole entry): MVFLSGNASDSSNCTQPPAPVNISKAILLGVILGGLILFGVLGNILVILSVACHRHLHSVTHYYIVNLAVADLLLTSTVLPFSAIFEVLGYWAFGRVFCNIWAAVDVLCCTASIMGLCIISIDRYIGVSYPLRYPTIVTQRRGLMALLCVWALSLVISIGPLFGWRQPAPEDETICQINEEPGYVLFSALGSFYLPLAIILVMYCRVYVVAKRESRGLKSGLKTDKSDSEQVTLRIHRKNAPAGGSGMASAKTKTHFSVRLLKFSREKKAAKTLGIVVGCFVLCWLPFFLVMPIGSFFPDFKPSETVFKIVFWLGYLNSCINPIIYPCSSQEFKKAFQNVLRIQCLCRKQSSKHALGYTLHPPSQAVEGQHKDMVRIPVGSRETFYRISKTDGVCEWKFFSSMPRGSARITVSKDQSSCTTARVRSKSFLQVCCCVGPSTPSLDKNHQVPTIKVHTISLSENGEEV
T4 sequence (P30518 whole entry): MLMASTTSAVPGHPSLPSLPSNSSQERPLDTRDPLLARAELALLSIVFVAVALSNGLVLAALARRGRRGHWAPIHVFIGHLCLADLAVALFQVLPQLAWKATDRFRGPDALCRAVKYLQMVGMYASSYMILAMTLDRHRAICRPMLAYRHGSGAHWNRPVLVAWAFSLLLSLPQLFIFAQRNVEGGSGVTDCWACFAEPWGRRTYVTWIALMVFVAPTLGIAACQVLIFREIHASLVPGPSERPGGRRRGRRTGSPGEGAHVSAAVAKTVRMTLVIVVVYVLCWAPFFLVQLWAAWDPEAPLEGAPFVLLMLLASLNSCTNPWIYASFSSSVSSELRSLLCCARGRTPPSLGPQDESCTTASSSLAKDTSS

CCOc1cccc2cc(C(C)NCC3(O)CCCCC3)oc12 (stereo not shown) [O4LE6]
Fold of Basal [1]: 1.536 and 0.8942 and 1.241 and 1.268 | Fold of Basal [2]: 0.6754 and 1.05 and 1.156 and 0.8918 | Fold of Basal [3]: 1.013 and 0.8978 and 0.7406 and 0.6452 | Fold of Basal [4]: 1.01 and 0.8337 and 0.9883 and 1.294
